ChEMBL document CHEMBL4017494, “Structural Basis of Wee Kinases Functionality and Inactivation by Diverse Small Molecule Inhibitors” (J Med Chem, 2017)
Active and inactive are the calls of the source. No cut-off for these calls is given here.

Columns and labels:
[1] = molecular target: T1, Wee1-like protein kinase (Homo sapiens, UniProt P30291); assay: Binding affinity to recombinant human N-terminal His6-tagged Wee1 kinase domain (291 to 575 residues) expressed in Escherichia coli BL21 (DE3) by isothermal titration calorimetry
Target sequence in this assay (P30291 whole entry, the tested form may be a part): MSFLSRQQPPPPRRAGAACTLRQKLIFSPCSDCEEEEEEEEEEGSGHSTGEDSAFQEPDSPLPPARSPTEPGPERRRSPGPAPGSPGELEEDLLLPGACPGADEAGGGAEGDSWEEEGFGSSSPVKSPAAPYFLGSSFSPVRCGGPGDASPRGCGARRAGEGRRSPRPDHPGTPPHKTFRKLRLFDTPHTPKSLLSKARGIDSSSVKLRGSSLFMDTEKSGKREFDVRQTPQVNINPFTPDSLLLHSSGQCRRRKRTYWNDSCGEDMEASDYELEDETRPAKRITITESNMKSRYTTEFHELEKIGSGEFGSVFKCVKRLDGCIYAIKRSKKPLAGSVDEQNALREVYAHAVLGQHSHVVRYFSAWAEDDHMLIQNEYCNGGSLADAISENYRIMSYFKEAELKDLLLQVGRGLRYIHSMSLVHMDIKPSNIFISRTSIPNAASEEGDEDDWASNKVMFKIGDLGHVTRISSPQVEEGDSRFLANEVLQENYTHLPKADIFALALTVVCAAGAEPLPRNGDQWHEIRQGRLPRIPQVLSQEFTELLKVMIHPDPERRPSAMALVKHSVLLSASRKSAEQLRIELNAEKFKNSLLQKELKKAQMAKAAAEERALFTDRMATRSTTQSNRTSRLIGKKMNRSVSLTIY

[2] = molecular target: T2, Wee1-like protein kinase 2 (Homo sapiens, UniProt P0C1S8); assay: Binding affinity to recombinant human N-terminal His6-tagged Wee2 kinase domain (202 to 492 residues) expressed in Escherichia coli BL21 (DE3) by isothermal titration calorimetry
Target sequence in this assay (P0C1S8 whole entry, the tested form may be a part): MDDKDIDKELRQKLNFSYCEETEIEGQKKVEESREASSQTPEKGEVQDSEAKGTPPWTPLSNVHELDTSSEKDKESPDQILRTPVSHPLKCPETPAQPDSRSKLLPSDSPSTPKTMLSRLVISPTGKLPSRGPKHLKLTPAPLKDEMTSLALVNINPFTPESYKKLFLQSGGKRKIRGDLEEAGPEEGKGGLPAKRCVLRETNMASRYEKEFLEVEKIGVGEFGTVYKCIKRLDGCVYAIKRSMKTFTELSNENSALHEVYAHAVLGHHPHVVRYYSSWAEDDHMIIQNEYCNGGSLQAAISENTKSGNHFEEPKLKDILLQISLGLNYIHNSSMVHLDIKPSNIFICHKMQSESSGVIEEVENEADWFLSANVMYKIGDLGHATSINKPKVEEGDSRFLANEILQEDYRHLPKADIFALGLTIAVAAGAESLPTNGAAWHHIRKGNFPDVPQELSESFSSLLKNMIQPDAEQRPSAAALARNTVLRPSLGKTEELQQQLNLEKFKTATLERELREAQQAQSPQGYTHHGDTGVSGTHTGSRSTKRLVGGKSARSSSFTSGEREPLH

[3] = molecular target: T1, Wee1-like protein kinase
Target sequence in this assay (P30291 whole entry, looked up, the tested form may be a part): as the sequence (P30291 whole entry, the tested form may be a part) above

[4] = molecular target: T2, Wee1-like protein kinase 2
Target sequence in this assay (P0C1S8 whole entry, looked up, the tested form may be a part): as the sequence (P0C1S8 whole entry, the tested form may be a part) above

[5] = molecular target: T3, Membrane-associated tyrosine- and threonine-specific cdc2-inhibitory kinase (Homo sapiens) (UniProt Q99640)
T3 sequence (whole entry): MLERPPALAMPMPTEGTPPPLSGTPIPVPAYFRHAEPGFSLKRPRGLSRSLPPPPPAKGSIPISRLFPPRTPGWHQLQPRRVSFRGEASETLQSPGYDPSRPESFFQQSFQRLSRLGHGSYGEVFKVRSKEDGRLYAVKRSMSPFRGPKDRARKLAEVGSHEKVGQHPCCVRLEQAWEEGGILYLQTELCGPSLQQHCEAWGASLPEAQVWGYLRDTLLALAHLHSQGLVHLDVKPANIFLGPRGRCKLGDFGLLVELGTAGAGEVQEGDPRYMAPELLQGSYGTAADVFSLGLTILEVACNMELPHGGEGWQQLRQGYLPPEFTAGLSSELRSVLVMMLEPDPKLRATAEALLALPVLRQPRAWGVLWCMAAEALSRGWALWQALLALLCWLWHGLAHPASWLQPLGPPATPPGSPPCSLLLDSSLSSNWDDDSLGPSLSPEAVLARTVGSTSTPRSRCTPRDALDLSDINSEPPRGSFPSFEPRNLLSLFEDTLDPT

[6] = system: HEK-293T; assay: Antiproliferative activity against HEK293T cells measured after 72 hrs by CellTiter-Blue assay; assay type: cell-based; details: Homo sapiens
[7] = system: MDA-MB-231; assay: Antiproliferative activity against human MDA-MB-231 cells measured after 72 hrs by CellTiter-Blue assay; assay type: functional, cell-based; details: MDA-MB-231, 72 h
[8] = system: MM1.S; assay: Antiproliferative activity against human MM1S cells measured after 72 hrs by CellTiter-Blue assay; assay type: functional, cell-based
[9] = molecular target: T1, Wee1-like protein kinase; assay: Inhibition of Wee1 in HEK293T cells assessed as decrease in CDK1 phosphorylation at Tyr15 at 0.01 to 10 uM after 6 hrs by Western blot method; assay type: cell-based
Target sequence in this assay (P30291 whole entry, the tested form may be a part): as the sequence (P30291 whole entry, the tested form may be a part) above

[10] = molecular target: T1, Wee1-like protein kinase; details: at 0.1 to 10 µM
Target sequence in this assay (P30291 whole entry, looked up, the tested form may be a part): as the sequence (P30291 whole entry, the tested form may be a part) above

[11] = molecular target: T2, Wee1-like protein kinase 2; assay: Binding affinity to recombinant human full-length N-terminal His8-tagged Wee2 (1 to 567 residues) expressed in human Expi293F cells assessed as dessociation constant by quantitative real-time PCR method; assay type: cell-based
Target sequence in this assay (P0C1S8 whole entry, the tested form may be a part): as the sequence (P0C1S8 whole entry, the tested form may be a part) above

[12] = Binding affinity to human FLT3 D835V-mutant assessed as dissociation constant by quantitative real-time PCR method
[13] = molecular target: T1, Wee1-like protein kinase; assay: Inhibition of Wee1 in HEK293T cells assessed as decrease in CDK1 phosphorylation at Tyr15 at 0.1 to 10 uM after 6 hrs by Western blot method; assay type: cell-based
Target sequence in this assay (P30291 whole entry, the tested form may be a part): as the sequence (P30291 whole entry, the tested form may be a part) above

[14] = molecular target: T4, Serine/threonine-protein kinase PLK1 (Homo sapiens, UniProt P53350)
T4 sequence (P53350 whole entry): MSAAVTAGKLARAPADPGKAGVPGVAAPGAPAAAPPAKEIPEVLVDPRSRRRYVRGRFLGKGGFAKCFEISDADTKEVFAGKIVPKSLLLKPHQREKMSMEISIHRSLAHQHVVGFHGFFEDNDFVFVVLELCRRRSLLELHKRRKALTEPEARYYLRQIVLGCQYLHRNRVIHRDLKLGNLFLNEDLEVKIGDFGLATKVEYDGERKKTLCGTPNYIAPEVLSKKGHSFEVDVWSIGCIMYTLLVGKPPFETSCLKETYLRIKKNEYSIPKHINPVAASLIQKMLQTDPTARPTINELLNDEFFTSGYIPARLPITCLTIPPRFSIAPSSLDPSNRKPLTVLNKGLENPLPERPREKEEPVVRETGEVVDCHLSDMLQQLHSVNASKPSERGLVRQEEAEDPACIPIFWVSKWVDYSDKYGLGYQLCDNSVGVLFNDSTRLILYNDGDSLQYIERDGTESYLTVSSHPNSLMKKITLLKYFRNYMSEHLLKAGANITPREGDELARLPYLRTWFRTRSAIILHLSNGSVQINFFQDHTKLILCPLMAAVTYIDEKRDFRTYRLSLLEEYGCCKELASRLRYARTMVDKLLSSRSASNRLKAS

[15] = molecular target: T4, Serine/threonine-protein kinase PLK1; details: 0.1 to 10 uM
[16] = molecular target: T5, Membrane-associated tyrosine- and threonine-specific cdc2-inhibitory kinase (Homo sapiens, UniProt Q99640); assay: Binding affinity to recombinant human N-terminal His6-tagged Myt1 kinase domain (75 to 361 residues) by isothermal titration calorimetry
T5 sequence (Q99640 whole entry): T3 sequence (whole entry)

[17] = molecular target: T1, Wee1-like protein kinase; details: 0.1 to 10 uM
Target sequence in this assay (P30291 whole entry, looked up, the tested form may be a part): as the sequence (P30291 whole entry, the tested form may be a part) above

Compound	ΔTm [3] [°C]	ΔTm [4] [°C]	ΔTm [5] [°C]	IC50 [6] [µM]	IC50 [7] [µM]	IC50 [8] [µM]	Kd ([2]; read-out: Kd) [µM]	Kd ([16]; read-out: Kd) [µM]	other results
CN1CCN(CCOc2cc(OC3CCOCC3)c3c(Nc4c(Cl)ccc5c4OCO5)ncnc3c2)CC1 [SARACATINIB]	1.2	0.65	2.1	–	–	–	–	–	Kd [1]: Not Active; Kd [2]: Not Active
C[C@@H](Oc1cc(-n2cnc3ccc(CN4CCN(C)CC4)cc32)sc1C(N)=O)c1ccccc1C(F)(F)F [GSK-461364]	–	–	–	0.001 to 0.0035	0.001 to 0.0035	0.001 to 0.0035	–	–	inhibition (INH) [9]: Not Active; inhibition [10]: inactive
C=CCn1c(=O)c2cnc(Nc3ccc(N4CCN(C)CC4)cc3)nc2n1-c1cccc(C(C)(C)O)n1 [ADAVOSERTIB]	15.4	11.6	3.3	0.29	0.26	0.31	0.027	–	Kd [11]: 0.0039 µM; Kd [12]: 0.0075 µM; inhibition (INH) [13]: Active; Kd [14]: 0.003 µM; inhibition [10]: Active; inhibition [15]: Active
COc1cc2c(Nc3cc(Cl)c(OC)c(Cl)c3)c(C#N)cnc2cc1OCCCN1CCN(C)CC1	10	12.3	3	1.6	1.8	3.9	0.0047	0.444	–
CCN(CC)CCOc1ccc(Nc2ncc3cc(-c4c(Cl)cccc4Cl)c(=O)n(C)c3n2)cc1 [PD-0166285]	–	–	–	0.29	0.16	0.52	0.005	0.247	–
CCOc1cc2ncc(C#N)c(Nc3ccc(F)c(Cl)c3)c2cc1NC(=O)/C=C/CN(C)C [PELITINIB]	–	5.6	2.4	–	–	–	0.498	1.1	–
COc1cc(Nc2c(C#N)cnc3cc(OCCCN4CCN(C)CC4)c(OC)cc23)c(Cl)cc1Cl	–	–	3.9	–	–	–	–	–	–
Cc1nc(Nc2ncc(C(=O)Nc3c(C)cccc3Cl)s2)cc(N2CCN(CCO)CC2)n1	–	9.2	–	–	–	–	–	–	–
CC[C@@H]1C(=O)N(C)c2cnc(Nc3ccc(C(=O)NC4CCN(C)CC4)cc3OC)nc2N1C1CCCC1 [BI-2536]	–	–	–	–	–	–	–	–	inhibition (INH) [13]: Not Active
CNC(=O)c1nn(C)c2c1C(C)(C)Cc1cnc(Nc3ccc(N4CCN(C)CC4)cc3)nc1-2 [MILCICLIB]	13.4	11.5	3.6	–	–	–	0.0266	0.99	Kd ([1]; read-out: Kd): 0.0136 µM; inhibition [10]: Dose-dependent effect; inhibition [17]: Dose-dependent effect
CC(=O)NCC(=O)N1[C@@H]2CC[C@H]1c1ccc(Nc3ncc(C(F)(F)F)c(NC4CCC4)n3)cc12 (single isomer, unassigned) [PF-03814735]	7.9	8.5	-0.1	–	–	–	0.128	–	Kd ([1]; read-out: Kd): 0.0787 µM; Kd [16]: Not Active
